# Measurements from patent US20020137929A1, “1 - (3-heterocyclylphenyl) isothiourea, -isourea, -guanidine and -amidine herbicidal agents” (Intellectual Property Department, BASF Aktiengesellschaft, priority 1998, published 2002).
# How the values were obtained:
# ABUTH (Velvetleaf) = assay: Postemergence herbicidal evaluation; format: in vivo, Abutilon theophrasti; conditions: postemergence
# Method in brief: (§1)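 Rate range approx. 0.0156–0.500 kg/ha. Foliar application at 40 psi to ~2-week seedlings; surfactant 0.5% TWEEN 20 in 50/50 acetone/water. Evaluation 4–5 wk post-treatment by 0–9 visual injury score, means of replicate tests.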
# AMBEL (Ragweed, Common) = assay: Postemergence herbicidal evaluation; format: in vivo, Ambrosia artemisifolia; conditions: postemergence
# Method in brief: as §1
# [1] = system: IPOHE (Morningglory, Ivyleaf); assay: Postemergence herbicidal evaluation; format: in vivo, Ipomoea hederacea; conditions: postemergence
# Method in brief: as §1
# ECHCG (Barnyardgrass) [2] = assay: Postemergence herbicidal evaluation; format: in vivo, Echinochloa crus-galli; conditions: postemergence
# Method in brief: as §1
# SETVI (Foxtail, Green) = assay: Postemergence herbicidal evaluation; format: in vivo, Setaria viridis; conditions: postemergence
# Method in brief: as §1
# [3] = system: GLXMAW (Soybean, Williams); assay: Postemergence herbicidal evaluation; format: in vivo, Glycine max, (L.) Merr. cv Williams; conditions: postemergence
# Method in brief: as §1
# [4] = system: TRZAWR (Wheat, Winter, cv Riband); assay: Postemergence herbicidal evaluation; format: in vivo, Triticum aestivum; conditions: postemergence
# Method in brief: as §1
# CASOB (Sicklepod) = assay: Preemergence herbicidal evaluation; format: in vivo, Cassia obtusifolia; conditions: preemergence, rated 4-5 weeks after treatment, 0-9 scale
# Method in brief: (§2)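 Steps: mix seeds into potting soil; plant atop ~1 inch soil; spray compound in aqueous acetone (~0.0156-0.500 kg/ha equivalent); maintain in greenhouse with watering; rate visually 0-9 versus control at 4-5 weeks.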
# [5] = system: CHEAL (Lambsquarters, Common); assay: Preemergence herbicidal evaluation; format: in vivo, Chenopodium album; conditions: preemergence, rated 4-5 weeks after treatment, 0-9 scale
# Method in brief: as §2
# GALAP (Galium) = assay: Preemergence herbicidal evaluation; format: in vivo, Galium aparine; conditions: preemergence, rated 4-5 weeks after treatment, 0-9 scale
# Method in brief: as §2
# [6] = system: IPOHE (Morningglory, Ivyleaf); assay: Preemergence herbicidal evaluation; format: in vivo, Ipomoea hederacea; conditions: preemergence, rated 4-5 weeks after treatment, 0-9 scale
# Method in brief: as §2
# ECHCG (Barnyardgrass) [7] = assay: Preemergence herbicidal evaluation; format: in vivo, Echinochloa crus-galli; conditions: preemergence, rated 4-5 weeks after treatment, 0-9 scale
# Method in brief: as §2
# ZEAMX (Corn, Field) = assay: Preemergence herbicidal evaluation; format: in vivo, Zea mays; conditions: preemergence, rated 4-5 weeks after treatment, 0-9 scale
# Method in brief: as §2
# [8] = system: ECHORC (Watergrass (Calif.)); assay: Postemergence weed control under flooded paddy conditions; format: in vivo, Echinochloa oryzoides; conditions: postemergence weeds, rated 3 to 4 weeks after treatment
# Method in brief: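 Injury ratings (0–9 scale covering stand, vigor, malformation, size, chlorosis and overall appearance versus control) were made three to four weeks after treatment. Test material, about 0.0313 to 0.500 kg/ha a.i. in 50/50 v/v aqueous/acetone, was added to flood water 1.5 to 3 cm deep over 3 to 5 cm weeds and 1.5 to 2.5 leaf rice.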
smiles,measurement,setting,value
"CCOC(=O)CN1C(=O)C(CC(=O)NO)S/C1=N/c1cc(-n2c(=O)cc(C(F)(F)F)n(C)c2=O)c(F)cc1Cl (stereo not shown) [Compound 98, Ethyl 2-{{2-chloro-5-[3,6-dihydro-3-methyl-2,6-dioxo-4-(trifluoromethyl)-1(2H)-pyrimidinyl]-4-fluorophenyl}imino}-5-[(hydroxycarbamoyl)methyl]-4-oxo-3-thiazolidineacetate]",ABUTH herbicidal rating,ABUTH (Velvetleaf); rate 0.0156 kg/ha,2.0
same,ABUTH herbicidal rating,ABUTH (Velvetleaf); rate 0.0313 kg/ha,7.0
same,ABUTH herbicidal rating,ABUTH (Velvetleaf); rate 0.0625 kg/ha,9.0
same,ABUTH herbicidal rating,ABUTH (Velvetleaf); rate 0.1250 kg/ha,9.0
same,AMBEL herbicidal rating,"AMBEL (Ragweed, Common); rate 0.0156 kg/ha",3.0
same,AMBEL herbicidal rating,"AMBEL (Ragweed, Common); rate 0.0313 kg/ha",3.0
same,AMBEL herbicidal rating,"AMBEL (Ragweed, Common); rate 0.0625 kg/ha",4.0
same,AMBEL herbicidal rating,"AMBEL (Ragweed, Common); rate 0.1250 kg/ha",9.0
same,IPOHE herbicidal rating,[1]; rate 0.0156 kg/ha,3.0
same,IPOHE herbicidal rating,[1]; rate 0.0313 kg/ha,3.0
same,IPOHE herbicidal rating,[1]; rate 0.0625 kg/ha,9.0
same,IPOHE herbicidal rating,[1]; rate 0.1250 kg/ha,9.0
same,ECHCG herbicidal rating,ECHCG (Barnyardgrass) [2]; rate 0.0156 kg/ha,0.0
same,ECHCG herbicidal rating,ECHCG (Barnyardgrass) [2]; rate 0.0313 kg/ha,0.0
same,ECHCG herbicidal rating,ECHCG (Barnyardgrass) [2]; rate 0.0625 kg/ha,1.0
same,ECHCG herbicidal rating,ECHCG (Barnyardgrass) [2]; rate 0.1250 kg/ha,1.0
same,SETVI herbicidal rating,"SETVI (Foxtail, Green); rate 0.0156 kg/ha",1.0
same,SETVI herbicidal rating,"SETVI (Foxtail, Green); rate 0.0313 kg/ha",0.0
same,SETVI herbicidal rating,"SETVI (Foxtail, Green); rate 0.0625 kg/ha",1.0
same,SETVI herbicidal rating,"SETVI (Foxtail, Green); rate 0.1250 kg/ha",2.0
same,GLXMAW herbicidal rating,[3]; rate 0.0156 kg/ha,4.5
same,GLXMAW herbicidal rating,[3]; rate 0.0313 kg/ha,4.5
same,GLXMAW herbicidal rating,[3]; rate 0.0625 kg/ha,5.5
same,GLXMAW herbicidal rating,[3]; rate 0.1250 kg/ha,5.5
same,TRZAWR herbicidal rating,[4]; rate 0.0156 kg/ha,2.5
same,TRZAWR herbicidal rating,[4]; rate 0.0313 kg/ha,2.5
same,TRZAWR herbicidal rating,[4]; rate 0.0625 kg/ha,3.0
same,TRZAWR herbicidal rating,[4]; rate 0.1250 kg/ha,3.0
same,CASOB rating,CASOB (Sicklepod); 0.0156 kg/ha,0.0
same,CASOB rating,CASOB (Sicklepod); 0.0313 kg/ha,0.0
same,CASOB rating,CASOB (Sicklepod); 0.0625 kg/ha,0.0
same,CASOB rating,CASOB (Sicklepod); 0.1250 kg/ha,1.0
same,CASOB rating,CASOB (Sicklepod); 0.2500 kg/ha,2.0
same,CASOB rating,CASOB (Sicklepod); 0.5000 kg/ha,7.0
same,CHEAL rating,[5]; 0.0156 kg/ha,0.0
same,CHEAL rating,[5]; 0.0313 kg/ha,2.0
same,CHEAL rating,[5]; 0.0625 kg/ha,5.0
same,CHEAL rating,[5]; 0.1250 kg/ha,7.0
same,CHEAL rating,[5]; 0.2500 kg/ha,9.0
same,CHEAL rating,[5]; 0.5000 kg/ha,9.0
same,GALAP rating,GALAP (Galium); 0.0156 kg/ha,1.0
same,GALAP rating,GALAP (Galium); 0.0313 kg/ha,0.0
same,GALAP rating,GALAP (Galium); 0.0625 kg/ha,6.0
same,GALAP rating,GALAP (Galium); 0.2500 kg/ha,7.0
same,GALAP rating,GALAP (Galium); 0.5000 kg/ha,7.0
same,IPOHE rating,[6]; 0.0156 kg/ha,0.0
same,IPOHE rating,[6]; 0.0313 kg/ha,0.0
same,IPOHE rating,[6]; 0.0625 kg/ha,1.0
same,IPOHE rating,[6]; 0.1250 kg/ha,3.0
same,IPOHE rating,[6]; 0.2500 kg/ha,4.0
same,IPOHE rating,[6]; 0.5000 kg/ha,9.0
same,ECHCG rating,ECHCG (Barnyardgrass) [7]; 0.0156 kg/ha,0.0
same,ECHCG rating,ECHCG (Barnyardgrass) [7]; 0.0313 kg/ha,0.0
same,ECHCG rating,ECHCG (Barnyardgrass) [7]; 0.0625 kg/ha,0.0
same,ECHCG rating,ECHCG (Barnyardgrass) [7]; 0.1250 kg/ha,1.0
same,ECHCG rating,ECHCG (Barnyardgrass) [7]; 0.2500 kg/ha,1.0
same,ECHCG rating,ECHCG (Barnyardgrass) [7]; 0.5000 kg/ha,2.0
same,ZEAMX rating,"ZEAMX (Corn, Field); 0.0156 kg/ha",0.0
same,ZEAMX rating,"ZEAMX (Corn, Field); 0.0313 kg/ha",0.0
same,ZEAMX rating,"ZEAMX (Corn, Field); 0.0625 kg/ha",0.0
same,ZEAMX rating,"ZEAMX (Corn, Field); 0.1250 kg/ha",0.0
same,ZEAMX rating,"ZEAMX (Corn, Field); 0.2500 kg/ha",4.0
same,ZEAMX rating,"ZEAMX (Corn, Field); 0.5000 kg/ha",6.0
same,Herbicidal rating ECHORC,[8]; Rate 0.0313 kg/ha,0.0
same,Herbicidal rating ECHORC,[8]; Rate 0.0625 kg/ha,0.0
same,Herbicidal rating ECHORC,[8]; Rate 0.1250 kg/ha,1.0
same,Herbicidal rating ECHORC,[8]; Rate 0.2500 kg/ha,3.0
